Reference: patent US9388123B2, “LSD1-selective inhibitor having lysine structure” (KYOTO UNIVERSITY, priority 2012, dated 2016)
Structures can show the parent of a compound that is named as a salt.

How the values were obtained:
[1] = target: T1, monoamine oxidase A (MAO-A) (Homo sapiens, UniProt P21397); assay: Monoamine oxidase inhibition test (MAO-Glo assay kit); assay type: biochemical; conditions: room temperature, 1 hour
T1 construct: purchased Sigma-Aldrich
T1 sequence (P21397 1-527): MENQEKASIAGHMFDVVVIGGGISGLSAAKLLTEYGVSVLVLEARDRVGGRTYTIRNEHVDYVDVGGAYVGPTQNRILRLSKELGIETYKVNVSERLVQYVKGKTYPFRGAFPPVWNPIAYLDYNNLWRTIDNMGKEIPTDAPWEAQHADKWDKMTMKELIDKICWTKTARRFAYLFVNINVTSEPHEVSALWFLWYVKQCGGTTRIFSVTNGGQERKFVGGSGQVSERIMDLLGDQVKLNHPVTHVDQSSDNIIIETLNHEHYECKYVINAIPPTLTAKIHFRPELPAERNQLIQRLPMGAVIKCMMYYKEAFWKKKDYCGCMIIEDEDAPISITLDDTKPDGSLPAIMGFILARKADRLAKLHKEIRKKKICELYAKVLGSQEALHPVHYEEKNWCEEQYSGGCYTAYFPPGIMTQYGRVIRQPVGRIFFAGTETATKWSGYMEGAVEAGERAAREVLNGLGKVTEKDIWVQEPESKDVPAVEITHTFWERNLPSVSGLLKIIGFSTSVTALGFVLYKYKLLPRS
Experimental: (§6) To the reaction liquid was added 50 μL of a luciferin detection reagent, and the mixture was subjected to a reaction at room temperature for 20 minutes.

KG1a = assay: Leukemia cell growth inhibition evaluation (WST-8); assay type: cell-based; conditions: Homo sapiens, KG-1a; day 3 (72-hour culture); read-out: Human leukemia cell line GI50 (μM) KG1a
From the text: (§1) HL60, THP-1, K562, U937, KGla, HEL, and MDS-L were used as human leukemia cells. The cell lines are cell lines established from various subtypes such as acute myeloid leukemia, acute promyelocytic leukemia, acute monocytic leukemia, acute erythroid leukemia, and myelodysplastic syndromes, which progress to leukemia. Cells obtained by introducing leukemia fusion genes MLL/AF9, MLL/SEPT6, and MLL/ENL into the bone marrow of normal mice with a retrovirus so as to develop leukemia were used as murine leukemia cell lines.
(§2) This assay method involves, as a principle thereof, measuring an absorbance (a peak at from 450 nm to 490 nm) at the time of color development through a reaction of NADH, which is contained in the mitochondria of viable cells, and WST-8 to measure the amount of NADH. Specifically, the assay was performed by the following procedure.
(§3) The cells were plated at 50 μl, i.e., 5,000 cells per well in a 96-well microtiter plate. Next, a test compound dissolved in DMSO was mixed at various concentrations into the same medium, and 50 μl of each of the mixtures was added to each well. A medium was prepared so that the final concentration of the test compound was from 0 μM to 50 μM and so that the addition amount of DMSO was the same, and the cells were cultured in a CO2 incubator. On day 0 before the addition and on day 1, day 2, and day 3 after the addition, WST-8 reagent was added at 20 μl per well, and the cells were cultured for 1 hour in a CO2 incubator. After that, measurement was performed with ARVO X3 (manufactured by PerkinElmer).
(§4) Specifically, an absorbance at 450 nm was measured, an absorbance at 595 nm was measured in the same well, and the absorbance at 595 nm was subtracted from the absorbance at 450 nm to perform background correction for the well itself. Further, a well containing only a medium free of cells was subjected to the same measurement. A value in this case was also subtracted. Thus, the amount of viable cells was represented as a numerical value with correction of the influence of a medicament or a medium as well. Under a condition not containing the test compound (addition of only dimethyl sulfoxide), an exponential increase in number of viable cells on day 1, day 2, and day 3 in the stated order was confirmed.

HL60 = assay: Leukemia cell growth inhibition evaluation (WST-8); assay type: cell-based; conditions: Homo sapiens, HL-60; day 3 (72-hour culture); read-out: Human leukemia cell line GI50 (μM) HL60
From the text: as §1, §2, §3, §4

THP1 = assay: Leukemia cell growth inhibition evaluation (WST-8); assay type: cell-based; conditions: Homo sapiens, THP-1; day 3 (72-hour culture); read-out: Human leukemia cell line GI50 (μM) THP1
From the text: as §1, §2, §3, §4

U937 = assay: Leukemia cell growth inhibition evaluation (WST-8); assay type: cell-based; conditions: Homo sapiens, U-937; day 3 (72-hour culture); read-out: Human leukemia cell line GI50 (μM) U937
From the text: as §1, §2, §3, §4

M7 = assay: Leukemia cell growth inhibition evaluation (WST-8); assay type: cell-based; conditions: Homo sapiens; day 3 (72-hour culture); read-out: Human leukemia cell line GI50 (μM) M7
From the text: as §1, §2, §3, §4

[2] = system: MLL/ENL leukemia cell line; assay: Leukemia cell growth inhibition evaluation (WST-8); assay type: cell-based; conditions: Mus musculus; day 3 (72-hour culture); read-out: Mouse MLL-fusion leukemia cell line GI50 (μM) MLL/ENL
From the text: as §1, §2, §3, §4

[3] = system: MLL/AF9 leukemia cell line; assay: Leukemia cell growth inhibition evaluation (WST-8); assay type: cell-based; conditions: Mus musculus, day 3 (72-hour culture), read-out: Mouse MLL-fusion leukemia cell line GI50 (μM) MLL/AF9
From the text: as §1, §2, §3, §4

K562 = assay: Leukemia cell growth inhibition evaluation (WST-8); assay type: cell-based; conditions: Homo sapiens, day 3 (72-hour culture), read-out: Human leukemia cell line GI50 (μM) K562
From the text: as §1, §2, §3, §4

HeLa cells = assay: Cancer cell growth inhibition evaluation (MTT assay); assay type: cell-based; conditions: Homo sapiens, 48 h, read-out: GI50 (μM) HeLa
Experimental: (§5) Evaluation was performed by measuring the inhibitory activities of a compound against the growth of a human cervical cancer-derived cell line, HeLa cells, and a human neuroblastoma cell line, SH-SY5Y cells. Details thereof are shown below. […] This assay involves, as a principle thereof, measuring an absorbance at the time of color development through a reaction of NADH, which is contained in the mitochondria of viable cells, and MTT to measure the amount of NADH. The assay was performed by the following procedure. […] After the culture, a compound was added. Then, the cells were cultured for an additional 48 hours, and then 5 mg/ml MTT liquid was added at 10 μl per well. The cells were cultured for an additional 3 hours in a CO2 incubator. A solubilization solution (0.04 mol/l hydrochloric acid-isopropanol) was added at 100 μl per well and the mixture was vigorously vortexed. After that, an absorbance at 560 nm was measured with Fusion-aFP (manufactured by PerkinElmer) and the amount of viable cells was determined.

SH-SY5Y cells = assay: as above; assay type: cell-based; conditions: Homo sapiens, read-out: GI50 (μM) SH-SY5Y
Experimental: as §5

[4] = target: T2, monoamine oxidase B (MAO-B) (Homo sapiens, UniProt P27338); assay: Monoamine oxidase inhibition test (MAO-Glo assay kit); assay type: biochemical; conditions: room temperature, 1 hour
T2 construct: purchased Sigma-Aldrich
T2 sequence (P27338 1-520): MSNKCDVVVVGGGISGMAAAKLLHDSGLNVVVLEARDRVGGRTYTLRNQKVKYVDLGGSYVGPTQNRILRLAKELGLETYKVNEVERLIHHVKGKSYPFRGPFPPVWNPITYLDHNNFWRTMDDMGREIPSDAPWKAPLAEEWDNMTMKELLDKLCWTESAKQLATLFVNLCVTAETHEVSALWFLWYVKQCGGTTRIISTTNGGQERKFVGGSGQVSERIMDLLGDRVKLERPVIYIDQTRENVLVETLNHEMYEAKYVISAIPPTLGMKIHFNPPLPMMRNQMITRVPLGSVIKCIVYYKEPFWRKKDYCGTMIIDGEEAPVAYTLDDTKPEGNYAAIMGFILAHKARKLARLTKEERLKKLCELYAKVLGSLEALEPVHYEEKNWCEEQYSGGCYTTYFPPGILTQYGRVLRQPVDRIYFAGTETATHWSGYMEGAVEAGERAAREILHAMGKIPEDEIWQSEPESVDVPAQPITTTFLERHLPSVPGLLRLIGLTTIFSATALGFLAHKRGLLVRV
Experimental: as §6

[5] = system: human leukemia cell lines; assay: Leukemia cell growth inhibition evaluation, summary in words; assay type: cell-based; conditions: Table 5
From the text: as §1, §2, §3, §4

[6] = system: murine leukemia cell lines; assay: as above; assay type: cell-based; conditions: Table 6
From the text: as §1, §2, §3, §4

NC1CC1c1cccc(OCC[C@H](NC(=O)c2ccccc2)C(=O)NCc2ccccc2)c1 (stereo partly drawn) [Comp. Ex. 2, (S)-trans-N-3-[3-(2-aminocyclopropyl)phenoxy]-1-benzylcarbamoylpropylbenzamide hydrochloride, reference compound]
IC50 [1]: 129 µM
GI50 (KG1a): > 50 µM
GI50 (HL60): 6.1 to 33 µM
GI50 (THP1): > 50 µM
GI50 (U937): 25 to 50 µM
GI50 (M7): > 50 µM
GI50 [2]: < 3.1 µM
GI50 [3]: < 3.1 µM
GI50 (K562): 25 to 50 µM
GI50 (HeLa cells): 13 µM
GI50 (SH-SY5Y cells): 27 µM
IC50 [4]: 326 µM
growth inhibitory / suppressing effect on the human leukemia cell lines (in words) [5]: a variation in growth inhibitory effect on the human leukemia cell lines depending on the cell lines
growth inhibitory / suppressing effect on the murine leukemia cell lines (in words) [6]: high growth inhibitory effects
